{"source": "patent US11613729B2", "about": "“Cortical spheroids and methods of making the same” (The Florida State University Research Foundation, Inc., priority 2019, dated 2023)", "key": {"hybrid spheroids [1]": {"tested_on": "hybrid spheroids", "experiment": "MTT assay of hybrid spheroids", "assay_type": "cell-based, human", "method": "First, an MTT assay was conducted. The spheroids of Examples 2 and 3 were incubated with 5 mg/mL 3-(4,5-Dimethylthiazol-2-yl)-2,5-diphenyltetrazolium bromide (MTT, Sigma) solution at day 7 after three cell types were co-cultured unless otherwise noted. The absorbance of the samples was measured at 500 nm using a microplate reader (Biorad, Richmond, Calif.).\nThe hMSCs were labeled with CellTracker Green."}, "iNPC-iEC-MSC spheroids": {"tested_on": "iNPC-iEC-MSC spheroids", "experiment": "Spheroid fusion / aggregation kinetics (squared aspect ratio)", "assay_type": "cell-based, human", "method": "To form hHA hydrogels, 1% (w/v) HA from Sigma Aldrich solution was reacted with a 5-fold molar excess amount of methacrylic anhydride (MA) from Sigma Aldrich for 15 h in the dark at 4° C. The final product was collected by precipitating the solution in 5-fold volume of ethanol twice, and was then purified by dialysis using a membrane (3.5 kDa Mw cut-off, Thermofisher) to remove unreacted reagents. The purified MA-HA was filtered, lyophilized, and stored at −20° C. until further use. Next, ^1H-NMR spectroscopy (a Bruker 500M spectrometer at […]) was used to analyze and the degree of methacrylation. For culture experiments, day 14 iEC spheroids were transferred to the wells containing day 14 iNPC spheroids, at the same time hMSCs were added into the wells at different ratios (iNPC:iEC:MSC=4:2:0, 3:2:1 2:2:2, and 1:2:3). […] The morphology of hybrid spheroids were captured over 7 days by a phase contrast microscope.\nImages of spheroid fusion were captured over time by a phase contrast microscope. The captured images were converted to binary images using ImageJ software (rsb.info.nih.gov/ij) and analyzed with the “particle analysis tool”. Through particle analysis, the squared aspect ratio of contact length between the two aggregates over maximum diameter (FIG. 6A) was determined to indicate the aggregate fusion process. The inter-sphere angle was measured as the intersecting angle between the tangent lines of two contacted spheroids to the touch point. For some experiments, the number of branching points and the total tube length in the area were evaluated."}, "hybrid spheroids [2]": {"tested_on": "hybrid spheroids", "experiment": "Neurite outgrowth of replated hybrid spheroids", "assay_type": "cell-based, human", "conditions": "ROCKi Y27632 10 μM, day 21 spheroids replated three days", "method": "Effects of ROCKi Y27632, Geltrex, and HA on neurogenesis of hybrid spheroids were depicted (not shown). Day 21 hybrid spheroids embedded in Geltrex (5%) or treated with ROCKi Y27632 (10 μM) were replated on 1% Geltrex-coated surface for three days. Neurite and axonal extension indicated by β-tubulin III expression was shown. Phase contrast images of axon outgrowth of day 21 spheroids were produced (not shown). Fluorescent images for day 39 spheroids: neuron marker β-tubulin III, motor neuron progenitor marker Islet-1, GABAergic neuron marker (GABA), glutamatergic neuron marker (Glutamate), cortical neuron marker (TBR1), pre-synaptic marker synapsin I and post-synaptic marker PSD95 were produced (not shown)."}}, "data": [{"smiles": "c1cc(CN2CCCNCCNCCCNCC2)ccc1CN1CCCNCCNCCCNCC1", "note": "[AMD3100]", "values": [{"measurement": "MTT activity (cell proliferation)", "setting": "hybrid spheroids [1]; AMD3100 100 nM, day 24 hybrid spheroids", "value": "little influence on cell proliferation"}, {"measurement": "area occupied by hMSCs", "setting": "hMSCs in fused spheroids; AMD3100 100 nM vs control groups", "value": "smaller than the control groups"}, {"measurement": "aspect ratio of hMSCs (area occupied by hMSCs to total area of fused spheroids)", "setting": "hMSCs in fused spheroids; AMD3100 100 nM, day 4 to day 8", "value": "decreased from day 4 to day 8"}]}, {"smiles": "C[C@@H](N)[C@H]1CC[C@H](C(=O)Nc2ccncc2)CC1", "note": "[Y27632]", "values": [{"measurement": "MTT activity", "setting": "hybrid spheroids [1]; 20 μM ROCKi Y27632, 7 days of tri-culture, vs no treatment", "value": "increased MTT activity"}, {"measurement": "aspect ratio", "setting": "iNPC-iEC-MSC spheroids; 20 μM or 40 μM ROCKi, plateau over 7 days", "value": "0.5-0.7"}, {"measurement": "tendency of two spheroids to fuse", "setting": "iNPC-iEC-MSC spheroids; high concentration (20 μM or 40 μM)", "value": "disrupted"}, {"measurement": "integration of MSCs into iNPC-iEC spheroids", "setting": "iNPC-iEC-MSC spheroids; low concentration of ROCKi (10 μM)", "value": "did not impact"}, {"measurement": "neurite outgrowth", "setting": "hybrid spheroids [2]", "value": "enhanced"}]}]}
